Reference: the supplement of paper PMC10307832

How the values were obtained:
Assay in all cases: relative viability (nuclei count vs DMSO), 5 days (fraction); higher = more cells survive
NCI-H650 = system: NCI-H650
How it was run: (§1)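 Relative viability divides the nuclei count in treated wells by that in vehicle wells. Lung cancer cell lines were seeded in 1536-well plates, dosed by pin tool the next day, and fixed and stained after 5 days in one step with final 0.05% Triton X-100, 1% formaldehyde and 1 ug/ml Hoechst. Dosing was a single drug or a fixed anchor-drug dose plus five library-drug doses (not always all listed) in √10 steps, and values are medians of duplicate plates imaged at 4×.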

LU99A = system: LU99A
How it was run: as §1

NCI-H2170 = system: NCI-H2170
How it was run: as §1

201T = system: 201T
How it was run: as §1

NCI-H2087 = system: NCI-H2087
How it was run: as §1

EKVX = system: EKVX
How it was run: as §1

NCI-H1437 = system: NCI-H1437
How it was run: as §1

NCI-H2085 = system: NCI-H2085
How it was run: as §1

HCC-827 = system: HCC-827
How it was run: as §1

SW 1573 = system: SW 1573
How it was run: as §1

NCI-H1975 = system: NCI-H1975
How it was run: as §1

HCC-44 = system: HCC-44
How it was run: as §1

H3255 = system: H3255
How it was run: as §1

NCI-H1666 = system: NCI-H1666
How it was run: as §1

EPLC-272H = system: EPLC-272H
How it was run: as §1

LCLC-97TM1 = system: LCLC-97TM1
How it was run: as §1

NCI-H647 = system: NCI-H647
How it was run: as §1

LOU-NH91 = system: LOU-NH91
How it was run: as §1

BEN = system: BEN
How it was run: as §1

COR-L 105 = system: COR-L 105
How it was run: as §1

PC-3 [JPC-3] = system: PC-3 [JPC-3]
How it was run: as §1

With `CCN(CC)CCCCNc1ncc2cc(-c3cc(OC)cc(OC)c3)c(NC(=O)NC(C)(C)C)nc2n1` + CS(=O)(=O)N1CCN(Cc2cc3nc(-c4cccc5[nH]ncc45)nc(N4CCOCC4)c3s2)CC1 [Pictilisib] (partner 1 µM) as the molecule, how does the relative viability (NCI-H650; first compound 0.01 µM) read?
The relative viability was 0.874.

And the relative viability (NCI-H650; first compound 0.03162 µM)?
Its relative viability is 0.889.

And the relative viability (NCI-H650; first compound 0.1 µM)?
The relative viability was 0.973.

What about the relative viability (NCI-H650; first compound 0.3162 µM) of the same molecule?
Its relative viability is 0.998.

And the relative viability (NCI-H650; first compound 1 µM)?
Its relative viability is 0.925.

And the relative viability (LU99A; first compound 0.01 µM)?
The relative viability was 0.31.

And the relative viability (LU99A; first compound 0.03162 µM)?
The relative viability was 0.396.

And the relative viability (LU99A; first compound 0.1 µM)?
The relative viability was 0.345.

What about the relative viability (LU99A; first compound 0.3162 µM) of the same molecule?
The relative viability was 0.313.

What about the relative viability (LU99A; first compound 1 µM) of the same molecule?
Its relative viability is 0.277.

What about the relative viability (NCI-H2170; first compound 0.01 µM) of the same molecule?
The relative viability was 0.326.

And the relative viability (NCI-H2170; first compound 0.03162 µM)?
The relative viability was 0.27.

And the relative viability (NCI-H2170; first compound 0.1 µM)?
Its relative viability is 0.299.

And the relative viability (NCI-H2170; first compound 0.3162 µM)?
Its relative viability is 0.317.

What about the relative viability (NCI-H2170; first compound 1 µM) of the same molecule?
The relative viability was 0.322.

What about the relative viability (201T; first compound 0.01 µM) of the same molecule?
Its relative viability is 0.741.

And the relative viability (201T; first compound 0.03162 µM)?
The relative viability was 0.663.

What about the relative viability (201T; first compound 0.1 µM) of the same molecule?
Its relative viability is 0.775.

What about the relative viability (201T; first compound 0.3162 µM) of the same molecule?
The relative viability was 0.677.

And the relative viability (201T; first compound 1 µM)?
The relative viability was 0.573.

And the relative viability (NCI-H2087; first compound 0.01 µM)?
Its relative viability is 0.784.

What about the relative viability (NCI-H2087; first compound 0.03162 µM) of the same molecule?
The relative viability was 0.827.

And the relative viability (NCI-H2087; first compound 0.1 µM)?
Its relative viability is 0.918.

What about the relative viability (NCI-H2087; first compound 0.3162 µM) of the same molecule?
The relative viability was 0.961.

And the relative viability (NCI-H2087; first compound 1 µM)?
Its relative viability is 0.984.

What about the relative viability (EKVX; first compound 0.01 µM) of the same molecule?
Its relative viability is 0.437.

What about the relative viability (EKVX; first compound 0.03162 µM) of the same molecule?
The relative viability was 0.455.

And the relative viability (EKVX; first compound 0.1 µM)?
Its relative viability is 0.42.

And the relative viability (EKVX; first compound 0.3162 µM)?
The relative viability was 0.407.

What about the relative viability (EKVX; first compound 1 µM) of the same molecule?
Its relative viability is 0.465.

And the relative viability (NCI-H1437; first compound 0.01 µM)?
The relative viability was 0.544.

And the relative viability (NCI-H1437; first compound 0.03162 µM)?
The relative viability was 0.482.

And the relative viability (NCI-H1437; first compound 0.1 µM)?
The relative viability was 0.424.

What about the relative viability (NCI-H1437; first compound 0.3162 µM) of the same molecule?
The relative viability was 0.395.

What about the relative viability (NCI-H1437; first compound 1 µM) of the same molecule?
The relative viability was 0.392.

What about the relative viability (NCI-H2085; first compound 0.01 µM) of the same molecule?
The relative viability was 0.432.

What about the relative viability (NCI-H2085; first compound 0.03162 µM) of the same molecule?
The relative viability was 0.46.

And the relative viability (NCI-H2085; first compound 0.1 µM)?
The relative viability was 0.233.

What about the relative viability (NCI-H2085; first compound 0.3162 µM) of the same molecule?
The relative viability was 0.512.

And the relative viability (NCI-H2085; first compound 1 µM)?
The relative viability was 0.46.

What about the relative viability (HCC-827; first compound 0.01 µM) of the same molecule?
Its relative viability is 1.03.

And the relative viability (HCC-827; first compound 0.03162 µM)?
The relative viability was 0.992.

What about the relative viability (HCC-827; first compound 0.1 µM) of the same molecule?
The relative viability was 0.886.

What about the relative viability (HCC-827; first compound 0.3162 µM) of the same molecule?
Its relative viability is 1.06.

What about the relative viability (HCC-827; first compound 1 µM) of the same molecule?
The relative viability was 1.02.

What about the relative viability (SW 1573; first compound 0.01 µM) of the same molecule?
The relative viability was 0.528.

And the relative viability (SW 1573; first compound 0.03162 µM)?
Its relative viability is 0.48.

And the relative viability (SW 1573; first compound 0.1 µM)?
The relative viability was 0.615.

What about the relative viability (SW 1573; first compound 0.3162 µM) of the same molecule?
The relative viability was 0.66.

And the relative viability (SW 1573; first compound 1 µM)?
The relative viability was 0.507.

And the relative viability (NCI-H1975; first compound 0.01 µM)?
Its relative viability is 0.28.

What about the relative viability (NCI-H1975; first compound 0.03162 µM) of the same molecule?
Its relative viability is 0.277.

And the relative viability (NCI-H1975; first compound 0.1 µM)?
Its relative viability is 0.311.

And the relative viability (NCI-H1975; first compound 0.3162 µM)?
Its relative viability is 0.322.

And the relative viability (NCI-H1975; first compound 1 µM)?
The relative viability was 0.255.

What about the relative viability (HCC-44; first compound 0.01 µM) of the same molecule?
The relative viability was 0.687.

And the relative viability (HCC-44; first compound 0.03162 µM)?
The relative viability was 0.746.

What about the relative viability (HCC-44; first compound 0.1 µM) of the same molecule?
Its relative viability is 0.603.

And the relative viability (HCC-44; first compound 0.3162 µM)?
Its relative viability is 0.635.

And the relative viability (HCC-44; first compound 1 µM)?
Its relative viability is 0.451.

What about the relative viability (H3255; first compound 0.01 µM) of the same molecule?
The relative viability was 0.421.

And the relative viability (H3255; first compound 0.03162 µM)?
The relative viability was 0.485.

What about the relative viability (H3255; first compound 0.1 µM) of the same molecule?
The relative viability was 0.569.

And the relative viability (H3255; first compound 0.3162 µM)?
The relative viability was 0.514.

And the relative viability (H3255; first compound 1 µM)?
Its relative viability is 0.501.

And the relative viability (NCI-H1666; first compound 0.01 µM)?
Its relative viability is 0.363.

And the relative viability (NCI-H1666; first compound 0.03162 µM)?
Its relative viability is 0.405.

What about the relative viability (NCI-H1666; first compound 0.1 µM) of the same molecule?
Its relative viability is 0.484.

What about the relative viability (NCI-H1666; first compound 0.3162 µM) of the same molecule?
The relative viability was 0.595.

What about the relative viability (NCI-H1666; first compound 1 µM) of the same molecule?
The relative viability was 0.367.

What about the relative viability (EPLC-272H; first compound 0.01 µM) of the same molecule?
The relative viability was 0.288.

And the relative viability (EPLC-272H; first compound 0.1 µM)?
Its relative viability is 0.33.

What about the relative viability (EPLC-272H; first compound 0.3162 µM) of the same molecule?
The relative viability was 0.298.

And the relative viability (EPLC-272H; first compound 1 µM)?
Its relative viability is 0.184.

And the relative viability (LCLC-97TM1; first compound 0.03162 µM)?
The relative viability was 0.18.

And the relative viability (LCLC-97TM1; first compound 0.1 µM)?
The relative viability was 0.162.

And the relative viability (LCLC-97TM1; first compound 0.3162 µM)?
The relative viability was 0.16.

And the relative viability (LCLC-97TM1; first compound 1 µM)?
The relative viability was 0.178.

What about the relative viability (NCI-H647; first compound 0.03162 µM) of the same molecule?
The relative viability was 0.471.

And the relative viability (NCI-H647; first compound 0.1 µM)?
The relative viability was 0.486.

And the relative viability (NCI-H647; first compound 0.3162 µM)?
Its relative viability is 0.465.

And the relative viability (NCI-H647; first compound 1 µM)?
The relative viability was 0.348.

What about the relative viability (LOU-NH91; first compound 0.01 µM) of the same molecule?
Its relative viability is 0.476.

What about the relative viability (LOU-NH91; first compound 0.03162 µM) of the same molecule?
Its relative viability is 0.494.

What about the relative viability (LOU-NH91; first compound 0.1 µM) of the same molecule?
The relative viability was 0.611.

What about the relative viability (LOU-NH91; first compound 0.3162 µM) of the same molecule?
Its relative viability is 0.524.

What about the relative viability (LOU-NH91; first compound 1 µM) of the same molecule?
Its relative viability is 0.51.

And the relative viability (BEN; first compound 0.01 µM)?
The relative viability was 0.587.

What about the relative viability (BEN; first compound 0.03162 µM) of the same molecule?
The relative viability was 0.516.

And the relative viability (BEN; first compound 0.1 µM)?
Its relative viability is 0.525.

And the relative viability (BEN; first compound 0.3162 µM)?
The relative viability was 0.59.

What about the relative viability (BEN; first compound 1 µM) of the same molecule?
Its relative viability is 0.485.

And the relative viability (COR-L 105; first compound 0.01 µM)?
The relative viability was 0.368.

And the relative viability (COR-L 105; first compound 0.03162 µM)?
Its relative viability is 0.394.

What about the relative viability (COR-L 105; first compound 0.1 µM) of the same molecule?
Its relative viability is 0.418.

And the relative viability (COR-L 105; first compound 0.3162 µM)?
The relative viability was 0.445.

What about the relative viability (COR-L 105; first compound 1 µM) of the same molecule?
Its relative viability is 0.392.

And the relative viability (PC-3 [JPC-3]; first compound 0.01 µM)?
Its relative viability is 0.739.

What about the relative viability (PC-3 [JPC-3]; first compound 0.03162 µM) of the same molecule?
The relative viability was 0.843.

And the relative viability (PC-3 [JPC-3]; first compound 0.1 µM)?
Its relative viability is 0.786.

And the relative viability (PC-3 [JPC-3]; first compound 0.3162 µM)?
Its relative viability is 0.815.

What about the relative viability (PC-3 [JPC-3]; first compound 1 µM) of the same molecule?
Its relative viability is 0.602.
